This note sets out measurements from patent publication US20080200454A1, “CARBON-LINKED TETRAHYDRO-PYRAZOLO-PYRIDINE MODULATORS OF CATHEPSIN S” (priority 2007, published 2008).

The target of this experiment is Recombinant human cathepsin S (CatS) (Homo sapiens, UniProt P25774). As to the kind of experiment: Recombinant human cathepsin S (CatS) inhibition assay, fluorogenic substrate Z-Valine-Valine-Arginine-AMC.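 Also: Baculovirus-expressed CatS in pH 5.0 sodium acetate buffer with DTT and NaCl, fluorescence read each minute over 20 min, inhibition derived from rate slope.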
Where [1] appears, read: CatS IC50, Table 2, average of results obtained.

Where two headings read alike, the source gives them in different places.

Recombinant human cathepsin S (CatS), sequence (P25774 115-331): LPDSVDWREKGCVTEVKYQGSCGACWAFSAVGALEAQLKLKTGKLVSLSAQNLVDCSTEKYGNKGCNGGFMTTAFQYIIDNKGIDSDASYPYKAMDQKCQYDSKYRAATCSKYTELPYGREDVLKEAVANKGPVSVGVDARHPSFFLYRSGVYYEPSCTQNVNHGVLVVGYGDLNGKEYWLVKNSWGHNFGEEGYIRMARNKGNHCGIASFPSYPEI

`CC(C)(C)OC(=O)N1CCC(C2CCN(C[C@H](O)Cn3nc(-c4ccc(Cl)c(C#Cc5cccnc5)c4)c4c3CCN(S(C)(=O)=O)C4)CC2)CC1` [Example 235, 1,1-Dimethylethyl 1′-[(2S)-3-{3-[4-chloro-3-(pyridin-3-ylethynyl)phenyl]-5-(methylsulfonyl)-4,5,6,7-tetrahydro-1H-pyrazolo[4,3-c]pyridin-1-yl}-2-hydroxypropyl]-4,4′-bipiperidine-1-carboxylate]: where the note is “CatS IC50”, the concentration for half-maximal inhibition (IC50) was determined as 330 nM.
For `COC(=O)[C@H](NCc1ccc(C#Cc2cc(-c3nn(CCCN4CCOCC4)c4c3CN(S(C)(=O)=O)CC4)ccc2Cl)cc1)c1ccccc1` [Example 211, Methyl (2R)-({[4-({2-chloro-5-[5-(methylsulfonyl)-1-(3-morpholin-4-ylpropyl)-4,5,6,7-tetrahydro-1H-pyrazolo[4,3-c]pyridin-3-yl]phenyl}ethynyl)phenyl]methyl}amino)(phenyl)ethanoate], the IC50 stood at 110 nM.
As to `CS(=O)(=O)N1CCc2c(c(-c3ccc(Cl)c(C#Cc4ccc(CNCc5ccc(Cl)cc5)cc4)c3)nn2CCCN2C[C@@H]3C[C@H]2CN3)C1` [Example 493, 1-[4-({2-Chloro-5-[1-{3-[(1S,4S)-2,5-diazabicyclo[2.2.1]hept-2-yl]propyl}-5-(methylsulfonyl)-4,5,6,7-tetrahydro-1H-pyrazolo[4,3-c]pyridin-3-yl]phenyl}ethynyl)phenyl]-N-[(4-chlorophenyl)methyl]methanamine], for the setting “CatS IC50”, the IC50 is 300 nM.
The same measure, in the same setting: in the case of `NC(=O)N1CCc2c(c(-c3ccc(Cl)c(C#Cc4ccc(CNCc5ccc(Cl)cc5)cc4)c3)nn2CCCN2CCN(C3CC3)CC2)C1` [Example 463, 3-(4-Chloro-3-{[4-({[(4-chlorophenyl)methyl]amino}methyl)phenyl]ethynyl}phenyl)-1-[3-(4-cyclopropylpiperazin-1-yl)propyl]-1,4,6,7-tetrahydro-5H-pyrazolo[4,3-c]pyridine-5-carboxamide] it was 110 nM.
`CS(=O)(=O)N1CCc2c(c(-c3ccc(Cl)c(C#Cc4ccc(CNCc5ccc(Cl)cc5)cc4)c3)nn2CCCN2CCN(c3cccc(O)c3)CC2)C1` [Example 409, 3-(4-{3-[3-(4-Chloro-3-{[4-({[(4-chlorophenyl)methyl]amino}methyl)phenyl]ethynyl}phenyl)-5-(methylsulfonyl)-4,5,6,7-tetrahydro-1H-pyrazolo[4,3-c]pyridin-1-yl]propyl}piperazin-1-yl)phenol]: the 50% inhibitory concentration (IC50) was 20 nM.
Turning to `Cc1ccccc1C#Cc1cc(-c2nn(CCCN3CCOCC3)c3c2CN(S(C)(=O)=O)CC3)ccc1Cl` [Example 35, 3-(4-Chloro-3-o-tolylethynyl-phenyl)-5-methanesulfonyl-1-(3-morpholin-4-yl-propyl)-4,5,6,7-tetrahydro-1H-pyrazolo[4,3-c]pyridine], under setting [1], the half-inhibitory concentration (IC50) amounted to 1050 nM.
With `CS(=O)(=O)N1CCc2c(c(-c3ccc(Cl)c(C#Cc4ccc(CN5Cc6ccccc6C5)cc4)c3)nn2CCCN2CCOCC2)C1` [Example 443, 3-(4-Chloro-3-{[4-(1,3-dihydro-2H-isoindol-2-ylmethyl)phenyl]ethynyl}phenyl)-5-(methylsulfonyl)-1-(3-morpholin-4-ylpropyl)-4,5,6,7-tetrahydro-1H-pyrazolo[4,3-c]pyridine], where the note is “CatS IC50”, the 50% inhibitory concentration (IC50) amounted to 690 nM.
For `CS(=O)(=O)N1CCc2c(c(-c3ccc(Cl)c(CCCNS(=O)(=O)c4cccc([N+](=O)[O-])c4)c3)nn2CCCN2CCC(N3CCCC3=O)CC2)C1` [Example 96, N-{3-[2-Chloro-5-(5-methanesulfonyl-1-{3-[4-(2-oxo-pyrrolidin-1-yl)-piperidin-1-yl]-propyl}-4,5,6,7-tetrahydro-1H-pyrazolo[4,3-c]pyridin-3-yl)-phenyl]-propyl}-3-nitro-benzenesulfonamide], the half-inhibitory concentration (IC50) came out at 1200 nM.
Consider `CS(=O)(=O)N1CCc2c(c(-c3ccc(Cl)c(C#Cc4ccc5c(c4)CC(C(=O)N4CCCCC4)NC5)c3)nn2CCCN2CCOCC2)C1` (centres unmarked) [Example 204, 6-({2-Chloro-5-[5-(methylsulfonyl)-1-(3-morpholin-4-ylpropyl)-4,5,6,7-tetrahydro-1H-pyrazolo[4,3-c]pyridin-3-yl]phenyl}ethynyl)-3-(piperidin-1-ylcarbonyl)-1,2,3,4-tetrahydroisoquinoline], for which the half-inhibitory concentration (IC50) was determined as 120 nM.
Regarding `CC(C)NCc1cc(C#Cc2cc(-c3nn(CCCN4CCOC[C@@H]4C)c4c3CN(C(=O)C(N)=O)CC4)ccc2Cl)ccc1Cl` [Example 619, 2-(3-{4-Chloro-3-[(4-chloro-3-{[(1-methylethyl)amino]methyl}phenyl)ethynyl]phenyl}-1-{3-[(3S)-3-methylmorpholin-4-yl]propyl}-1,4,6,7-tetrahydro-5H-pyrazolo[4,3-c]pyridin-5-yl)-2-oxoacetamide], under “CatS IC50”, the IC50 is 20 nM.
On the same count and under the same terms, in the case of `CS(=O)(=O)N1CCc2c(c(-c3ccc(Cl)c(C#Cc4ccc(CNCc5ccc(Cl)cc5)cc4)c3)nn2CCCN2CCC(F)(F)CC2)C1` [Example 357, 1-{4-[(2-Chloro-5-{1-[3-(4,4-difluoropiperidin-1-yl)propyl]-5-(methylsulfonyl)-4,5,6,7-tetrahydro-1H-pyrazolo[4,3-c]pyridin-3-yl}phenyl)ethynyl]phenyl}-N-[(4-chlorophenyl)methyl]methanamine] it was 210 nM.
For `CS(=O)(=O)N1CCc2c(c(-c3ccc(Cl)c(C#Cc4ccc(N)cc4)c3)nn2CCCN2CCOCC2)C1` [Example 38, 4-{2-Chloro-5-[5-methanesulfonyl-1-(3-morpholin-4-yl-propyl)-4,5,6,7-tetrahydro-1H-pyrazolo[4,3-c]pyridin-3-yl]-phenylethynyl}-phenylamine], under setting [1], the IC50 worked out at 330 nM.
Consider `CS(=O)(=O)N1CCc2c(c(-c3ccc(Cl)c(CCc4ccc(Cl)cc4)c3)nn2CCCN2CCOCC2)C1` [Example 57, 3-{4-Chloro-3-[2-(4-chloro-phenyl)-ethyl]-phenyl}-5-methanesulfonyl-1-(3-morpholin-4-yl-propyl)-4,5,6,7-tetrahydro-1H-pyrazolo[4,3-c]pyridine], for which the IC50 came out at 230 nM.
On to `CS(=O)(=O)N1CCc2c(c(-c3ccc(Cl)c(C#Cc4ccc(CNCc5ccc(Cl)cc5)cc4)c3)nn2CCCN2CCOCC2CO)C1` (centres unmarked) [Example 419, (4-{3-[3-(4-Chloro-3-{[4-({[(4-chlorophenyl)methyl]amino}methyl)phenyl]ethynyl}phenyl)-5-(methylsulfonyl)-4,5,6,7-tetrahydro-1H-pyrazolo[4,3-c]pyridin-1-yl]propyl}morpholin-3-yl)methanol], for which the IC50 came to 180 nM.
For the compound `CN(C)c1ccc(CNCc2ccc(C#Cc3cc(-c4nn(CCCN5CCSCC5)c5c4CN(C(N)=O)CC5)ccc3Cl)cc2)cc1` [Example 175, 3-[4-Chloro-3-({4-[({[4-(dimethylamino)phenyl]methyl}amino)methyl]phenyl}ethynyl)phenyl]-1-(3-thiomorpholin-4-ylpropyl)-1,4,6,7-tetrahydro-5H-pyrazolo[4,3-c]pyridine-5-carboxamide], the concentration for half-maximal inhibition (IC50) (CatS IC50) turned out to be 190 nM.
On the same count and under the same terms, in the case of `CS(=O)(=O)N1CCc2c(c(-c3ccc(Cl)c(CCCN4CCC(F)(F)CC4)c3)nn2CCCN2CCC(N3CCCC3=O)CC2)C1` [Example 104, 1-{1-[3-(3-{4-Chloro-3-[3-(4,4-difluoro-piperidin-1-yl)-propyl]-phenyl}-5-methanesulfonyl-4,5,6,7-tetrahydro-pyrazolo[4,3-c]pyridin-1-yl)-propyl]-piperidin-4-yl}-pyrrolidin-2-one] it was 930 nM; in that of `CCN(CC)Cc1ccc(C#Cc2cc(-c3nn(CCCN4CCOCC4)c4c3CN(S(C)(=O)=O)CC4)ccc2Cl)cc1` [Example 317, N-{[4-({2-Chloro-5-[5-(methylsulfonyl)-1-(3-morpholin-4-ylpropyl)-4,5,6,7-tetrahydro-1H-pyrazolo[4,3-c]pyridin-3-yl]phenyl}ethynyl)phenyl]methyl}-N-ethylethanamine], 2710 nM.
Consider `CS(=O)(=O)N1CCc2c(c(-c3ccc(Cl)c(CCc4ccc5[nH]ccc5c4)c3)nn2CCCN2CCOCC2)C1` [Example 2, 3-{4-Chloro-3-[2-(1H-indol-5-yl)-ethyl]-phenyl}-5-methanesulfonyl-1-(3-morpholin-4-yl-propyl)-4,5,6,7-tetrahydro-1H-pyrazolo[4,3-c]pyridine], for which the IC50 is 350 nM.
For the compound `CS(=O)(=O)N1CCc2c(c(-c3ccc(Cl)c(C#Cc4ccc(CN[C@H](CO)c5ccccc5)cc4)c3)nn2CCCN2CCOCC2)C1` [Example 342, (2S)-2-({[4-({2-Chloro-5-[5-(methylsulfonyl)-1-(3-morpholin-4-ylpropyl)-4,5,6,7-tetrahydro-1H-pyrazolo[4,3-c]pyridin-3-yl]phenyl}ethynyl)phenyl]methyl}amino)-2-phenylethanol], where the note is “CatS IC50”, the concentration for half-maximal inhibition (IC50) was found to be 310 nM.
Still for that read-out and setting: in the case of `C[C@H]1COCCN1CCCn1nc(-c2ccc(Cl)c(C#Cc3ccc(CO)cc3)c2)c2c1CCN(C(=O)C(N)=O)C2` [Example 618, 2-[3-(4-Chloro-3-{[4-(hydroxymethyl)phenyl]ethynyl}phenyl)-1-{3-[(3S)-3-methylmorpholin-4-yl]propyl}-1,4,6,7-tetrahydro-5H-pyrazolo[4,3-c]pyridin-5-yl]-2-oxoacetamide] it was 20 nM.
For the compound `CS(=O)(=O)N1CCc2c(c(-c3ccc(Cl)c(C#Cc4cncc(CNCc5ccc(Cl)cc5)c4)c3)nn2CCCN2CCOCC2)C1` [Example 428, 1-[5-({2-Chloro-5-[5-(methylsulfonyl)-1-(3-morpholin-4-ylpropyl)-4,5,6,7-tetrahydro-1H-pyrazolo[4,3-c]pyridin-3-yl]phenyl}ethynyl)pyridin-3-yl]-N-[(4-chlorophenyl)methyl]methanamine], where the note is “CatS IC50”, the IC50 stood at 3750 nM.
For `CS(=O)(=O)N1CCc2c(c(-c3ccc(Cl)c(C#Cc4ccc(CNCc5ccc(Cl)cc5)cc4)c3)nn2CC(O)CN2CCOCC2)C1` (centres unmarked) [Example 332, 1-[3-(4-Chloro-3-{[4-({[(4-chlorophenyl)methyl]amino}methyl)phenyl]ethynyl}phenyl)-5-(methylsulfonyl)-4,5,6,7-tetrahydro-1H-pyrazolo[4,3-c]pyridin-1-yl]-3-morpholin-4-ylpropan-2-ol], the IC50 was 190 nM.
As to `CS(=O)(=O)N1CCc2c(c(-c3ccc(Cl)c(CCc4ccc(Oc5ccccc5)cc4)c3)nn2CCCN2CCOCC2)C1` [Example 55, 3-{4-Chloro-3-[2-(4-phenoxy-phenyl)-ethyl]-phenyl}-5-methanesulfonyl-1-(3-morpholin-4-yl-propyl)-4,5,6,7-tetrahydro-1H-pyrazolo[4,3-c]pyridine], the IC50 worked out at 1070 nM.

For orientation: IC50 means the midpoint of a concentration-inhibition curve.
